pEC50: −log10 of the molar value. Where two headings read alike, the source gives them in different places.
What was measured:
[1] = Cytotoxicity determination in HepG2.2.15 cells (CCK-8); format: cell-based; conditions: human, 6 days of compound treatment, CCK-8, highest concentration 100 μM
Outline: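 CC50 is from CCK-8 absorbance (450 nm, 630 nm reference) after 2.5 h with reagent. Before that, compounds were applied for six days, top concentration 100 μM, eight threefold dilutions, one mid-course medium change, to stably HBV-integrated HepG2.2.15 cells plated at 5,000/well in 2% FBS.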

HBV = HBV inhibitory activity: HBV DNA in the culture medium of HepG2.2.15 cells by q-PCR; format: cell-based; conditions: HepG2.2.15 cells, 6 days of compound treatment, HBV DNA in culture medium by q-PCR, highest concentration 10 μM, read-out: EC50
Outline: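 Supernatant HBV DNA quantified by q-PCR after a 6-day compound exposure, with one mid-course medium change, of HepG2.2.15 cells (stably integrated HBV; 40,000 per well, 2% FBS). Eight-point 3-fold series topped at 10 μM for antiviral EC50; separate plates of 5,000 cells per well with 100 μM top give CC50.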

[2] = Hepatitis B virus, HepG2.2.15, 144 h

COC(=O)C1=C(C2CCN(S(=O)(=O)[C@H]3C[C@@H](CO)C3)CC2)NC(c2nccs2)=NC1c1ccc(F)cc1Cl (relative stereo) [Compound 357B, (cis)-Methyl 4-(2-chloro-4-fluorophenyl)-6-(1-((3-(hydroxymethyl)cyclobutyl)sulfonyl)piperidin-4-yl)-2-(thiazol-2-yl)-1,4-dihydropyrimidine-5-carboxylate]
CC50 at 6 days [1]: 15.4 µM
pEC50 (HBV; [2]): 7.44

CCOC(=O)C1=C(C2CCN(S(=O)(=O)[C@H]3C[C@H](C(=O)O)C3)CC2)NC(c2ncc(F)cc2F)=NC1c1ccc(F)c(F)c1Cl (stereo partly drawn) [Compound 352B]
CC50 at 6 days [1]: 29.4 µM
pEC50 (HBV; [2]): 7.96

COC(=O)C1=C(C2CCN(S(C)(=O)=O)CC2)NC(c2nccs2)=NC1c1ccc(F)cc1Cl (stereo not drawn) [Compound 103, Methyl 4-(2-chloro-4-fluorophenyl)-6-(1-(methylsulfonyl)-piperidin-4-yl)-2-(thiazol-2-yl)-1,4-dihydropyrimidine-5-carboxylate]
CC50 at 6 days [1]: 87 µM
pEC50 (HBV; [2]): 6.30

COC(=O)C1=C(C2CCN(S(=O)(=O)CC(=O)O)C2)NC(c2nccs2)=NC1c1ccc(F)cc1Cl (single isomer, unassigned) [Compound 214A, 2-((−3-(−6-(2-Chloro-4-fluorophenyl)-5-(methoxycarbonyl)-2-(thiazol-2-yl)-3,6-dihydropyrimidin-4-yl)pyrrolidin-1-yl)sulfonyl)acetic Acid]
CC50 at 6 days [1]: > 100 µM
pEC50 (HBV): 6.71

COC(=O)CCS(=O)(=O)N1CCC(C2=C(C(=O)OC)C(c3ccc(F)c(F)c3Cl)N=C(c3nccs3)N2)CC1 (stereo not drawn) [Compound 157A, Methyl 4-(2-chloro-3,4-difluorophenyl)-6-(1-((3-methoxy-3-oxopropyl)sulfonyl)piperidin-4-yl)-2-(thiazol-2-yl)-1,4-dihydropyrimidine-5-carboxylate]
CC50 at 6 days [1]: 80 µM
pEC50 (HBV; [2]): 7.07

COC(=O)C1=C([C@H]2CC[C@H](O)CC2)NC(c2nccs2)=NC1c1cccc(F)c1Cl (single isomer, unassigned) [Compound 381A, (trans)-Methyl 4-(2-chloro-3-fluorophenyl)-6-(4-hydroxycyclohexyl)-2-(thiazol-2-yl)-1,4-dihydropyrimidine-5-carboxylate]
CC50 at 6 days [1]: 28.5 µM
pEC50 (HBV; [2]): 7.15

CCS(=O)(=O)N1CCC(C2=C(C(=O)OC)C(c3ccc(F)cc3Cl)N=C(c3nccs3)N2)CC1 (stereo not drawn) [Compound 101, Methyl 4-(2-chloro-4-fluorophenyl)-6-(1-(ethylsulfonyl)piperidin-4-yl)-2-(thiazol-2-yl)-1,4-dihydropyrimidine-5-carboxylate]
CC50 at 6 days [1]: 38 µM
pEC50 (HBV; [2]): 6.68

CCOC(=O)C1=C(C2CCN(S(=O)(=O)[C@H]3C[C@@H](C(=O)O)C3)CC2)NC(c2nccs2)=NC1c1ccc(F)c(F)c1C (relative stereo) [Compound 343D, (cis)-3-((4-(6-(3,4-difluoro-2-methylphenyl)-5-(ethoxycarbonyl)-2-(thiazol-2-yl)-3,6-dihydropyrimidin-4-yl)piperidin-1-yl)sulfonyl)cyclobutane-carboxylic Acid]
CC50 at 6 days [1]: 24 µM
pEC50 (HBV; [2]): 7.28

CCOC(=O)C1=C(C2CCN(S(C)(=O)=O)CC2)NC(c2nccs2)=NC1c1cccc(F)c1Cl (stereo not drawn) [Compound 96B, Ethyl 4-(2-chloro-3-fluorophenyl)-6-(1-(methylsulfonyl)piperidin-4-yl)-2-(thiazol-2-yl)-1,4-dihydropyrimidine-5-carboxylate]
CC50 at 6 days [1]: 21.2 µM
pEC50 (HBV; [2]): 6.89

COC(=O)C1=C([C@H]2CC[C@H](NS(=O)(=O)C3COC3)CC2)NC(c2nccs2)=NC1c1ccc(F)cc1Cl (single isomer, unassigned) [Compound 384B, (trans)-Methyl 4-(2-chloro-4-fluorophenyl)-6-(4-(oxetane-3-sulfonamido)cyclohexyl)-2-(thiazol-2-yl)-1,4-dihydropyrimidine-5-carboxylate]
CC50 at 6 days [1]: 34 µM
pEC50 (HBV; [2]): 7.19

CCOC(=O)C1=C([C@@H]2CCC[C@H](C(=O)O)CC2)NC(c2nccs2)=NC1c1ccc(F)c(F)c1Cl (relative stereo) [Compound 302C, (cis)-4-(−6-(2-Chloro-3,4-difluorophenyl)-5-(ethoxycarbonyl)-2-(thiazol-2-yl)-3,6-dihydropyrimidin-4-yl)cycloheptanecarboxylic Acid]
CC50 at 6 days [1]: 10.2 µM
pEC50 (HBV; [2]): 7.30

COC(=O)C1=C([C@H]2C[C@@H](CO)CO2)NC(c2nccs2)=NC1c1cccc(F)c1Cl (relative stereo) [Compound 221, (cis)-Methyl 4-(2-chloro-3-fluorophenyl)-6-(4-(hydroxymethyl)tetrahydrofuran-2-yl)-2-(thiazol-2-yl)-1,4-dihydropyrimidine-5-carboxylate]
CC50 at 6 days [1]: 47.1 µM
pEC50 (HBV; [2]): 7.28

COC(=O)C1=C(C2CCN(S(=O)(=O)CC(F)(F)F)CC2)NC(c2nccs2)=NC1c1ccc(F)cc1Cl (stereo not drawn) [Compound 216, Methyl 4-(2-chloro-4-fluorophenyl)-2-(thiazol-2-yl)-6-(1-((2,2,2-trifluoroethyl)sulfonyl)piperidin-4-yl)-1,4-dihydropyrimidine-5-carboxylate]
CC50 at 6 days [1]: > 100 µM
pEC50 (HBV; [2]): 7.05

COC(=O)C1=C([C@H]2CC[C@H](S(=O)(=O)NCCC(C)(C)O)CC2)NC(c2nccs2)=NC1c1ccc(F)c(F)c1Cl (stereo partly drawn) [Compound 358B, (trans)-Methyl 4-(2-chloro-3,4-difluorophenyl)-6-(4-(N-(3-hydroxy-3-methylbutyl)sulfamoyl)cyclohexyl)-2-(thiazol-2-yl)-1,4-dihydropyrimidine-5-carboxylate]
CC50 at 6 days [1]: 12.5 µM
pEC50 (HBV; [2]): 7.23

COC(=O)C1=C([C@H]2CC[C@H](NS(=O)(=O)CCO)CC2)NC(c2nccs2)=NC1c1ccc(F)cc1Cl (relative stereo) [Compound 187B, (trans)-Methyl 4-(2-chloro-4-fluorophenyl)-6-(4-(2-hydroxyethylsulfonamido)cyclohexyl)-2-(thiazol-2-yl)-1,4-dihydropyrimidine-5-carboxylate]
CC50 at 6 days [1]: 18.9 µM
pEC50 (HBV; [2]): 7.49

COC(=O)C1=C(C2CCN(S(=O)(=O)[C@H]3C[C@H](C(=O)O)C3)CC2)NC(c2nccs2)=NC1c1ccc(F)cc1Cl (relative stereo) [Compound 285A, trans-3-((4-(6-(2-Chloro-4-fluorophenyl)-5-(methoxycarbonyl)-2-(thiazol-2-yl)-3,6-dihydropyrimidin-4-yl)piperidin-1-yl)sulfonyl)cyclobutane-carboxylic Acid]
CC50 at 6 days [1]: 67.2 µM
pEC50 (HBV; [2]): 7.62

CCOC(=O)C1=C([C@H]2CC[C@H](C(=O)O)CO2)NC(c2nccs2)=NC1c1ccc(F)cc1Cl (single isomer, unassigned) [Compound 363E, (trans)-6-(−6-(2-Chloro-4-fluorophenyl)-5-(ethoxycarbonyl)-2-(thiazol-2-yl)-3,6-dihydropyrimidin-4-yl)tetrahydro-2H-pyran-3-carboxylic Acid]
CC50 at 6 days [1]: > 100 µM
pEC50 (HBV): 6.53

CCOC(=O)C1=C([C@H]2CC[C@H](C(N)=O)CC2)NC(c2nccs2)=NC1c1ccc(F)cc1Cl (stereo partly drawn) [Compound 163, (trans)-ethyl 6-(−4-carbamoylcyclohexyl)-4-(2-chloro-4-fluorophenyl)-2-(thiazol-2-yl)-1,4-dihydropyrimidine-5-carboxylate]
CC50 at 6 days [1]: 23.9 µM
pEC50 (HBV; [2]): 7.19

— patent US11639350B2, “Heteroaryldihydropyrimidine derivatives and methods of treating hepatitis B infections” (Janssen Pharmaceutica NV, priority 2018, dated 2023)
